Data: patent publication US11230538B2, “Herbicides” (SYNGENTA PARTICIPATIONS AG, priority 2016, dated 2022)

Experiments:
Format in all cases: in vivo
[1] = test system: Alopecurus myosuroides (ALOMY); experiment: B1 Pre-emergence herbicidal activity; set-up: key: 5=total damage to plant; 0=no damage to plant; conditions: pre-emergence application, rate 1000 g/ha, evaluated after 13 days
Protocol: (§1) Seeds of a variety of test species were sown in standard soil in pots: Triticum aestivium (TRZAW), Avena fatua (AVEFA), Alopecurus myosuroides (ALOMY), Echinochloa crus-galli (ECHCG), Lolium perenne (LOLPE), Zea Mays (ZEAMX), Abutilon theophrasti (ABUTH), Amaranthus retroflexus (AMARE) and Setaria fabenr (SETFA). After cultivation for one day (pre-emergence) under controlled conditions in a glasshouse (at 24/16° C., day/night; 14 hours light; 65% humidity), the plants were sprayed with an aqueous spray solution derived from the formulation of the technical active ingredient in acetone I water (50:50) solution containing 0.5% Tween 20 (polyoxyethelyene sorbitan monolaurate, CAS RN 9005-64-5). The test plants were then grown in a glasshouse under controlled conditions (at 24/16° C., day/night; 14 hours light; 65% humidity) and watered twice daily. After 13 days, the test was evaluated (5=total damage to plant; 0=no damage to plant).

Avena fatua (AVEFA) = experiment: B1 Pre-emergence herbicidal activity; set-up: key: 5=total damage to plant; 0=no damage to plant; conditions: pre-emergence application, rate 1000 g/ha, evaluated after 13 days
Protocol: as §1

[2] = test system: Triticum aestivium (TRZAW); experiment: B1 Pre-emergence herbicidal activity; set-up: key: 5=total damage to plant; 0=no damage to plant; conditions: pre-emergence application, rate 1000 g/ha, evaluated after 13 days
Protocol: as §1

[3] = test system: Echinochloa crus-galli (ECHCG); experiment: B1 Pre-emergence herbicidal activity; conditions: pre-emergence application, rate 1000 g/ha, evaluated after 13 days
Protocol: as §1

Lolium perenne (LOLPE) = experiment: B1 Pre-emergence herbicidal activity; set-up: key to Pre-emergence herbicidal activity, LOLPE (damage score 0-5): 5=total damage to plant; 0=no damage to plant; conditions: pre-emergence application, rate 1000 g/ha, evaluated after 13 days
Protocol: as §1

Setaria fabenr (SETFA) = experiment: B1 Pre-emergence herbicidal activity; set-up: key to Pre-emergence herbicidal activity, SETFA (damage score 0-5): 5=total damage to plant; 0=no damage to plant; conditions: pre-emergence application, rate 1000 g/ha, evaluated after 13 days
Protocol: as §1

[4] = test system: Echinochloa crus-galli (ECHCG); experiment: B2 Post-emergence herbicidal activity; conditions: post-emergence application, rate 1000 g/ha, evaluated after 13 days
Protocol: (§2) Seeds of a variety of test species were sown in standard soil in pots: Triticum aestivium (TRZAW), Avena fatua (AVEFA), Alopecurus myosuroides (ALOMY), Echinochloa crus-galli (ECHCG), Lolium perenne (LOLPE), Zea Mays (ZEAMX), Abutilon theophrasti (ABUTH), Amaranthus retroflexus (AMARE) and Setaria fabenri (SETFA). After 8 days cultivation (post-emergence) under controlled conditions in a glasshouse (at 24/16° C., day/night; 14 hours light; 65% humidity), the plants were sprayed with an aqueous spray solution derived from the formulation of the technical active ingredient in acetone I water (50:50) solution containing 0.5% Tween 20 (polyoxyethelyene sorbitan monolaurate, CAS RN 9005-64-5). The test plants were then grown in a glasshouse under controlled conditions (at 24/16° C., day/night; 14 hours light; 65% humidity) and watered twice daily. After 13 days, the test was evaluated (5=total damage to plant; 0=no damage to plant).

[5] = test system: Alopecurus myosuroides (ALOMY); experiment: B2 Post-emergence herbicidal activity; set-up: key: 5=total damage to plant; 0=no damage to plant; conditions: post-emergence application, rate 1000 g/ha, evaluated after 13 days
Protocol: as §2

Setaria fabenri (SETFA) = experiment: B2 Post-emergence herbicidal activity; set-up: key: 5=total damage to plant; 0=no damage to plant; conditions: post-emergence application, rate 1000 g/ha, evaluated after 13 days
Protocol: as §2

[6] = test system: Triticum aestivium (TRZAW); experiment: B2 Post-emergence herbicidal activity; set-up: key: 5=total damage to plant; 0=no damage to plant; conditions: post-emergence application, rate 1000 g/ha, evaluated after 13 days
Protocol: as §2

SMILES | Pre-emergence herbicidal activity, ALOMY (damage score 0-5) [1] | Pre-emergence herbicidal activity, AVEFA (damage score 0-5) (Avena fatua (AVEFA)) | Pre-emergence herbicidal activity, TRAZW (damage score 0-5) [2] | Pre-emergence herbicidal activity, ECHCG (damage score 0-5) [3] | Pre-emergence herbicidal activity, LOLPE (damage score 0-5) (Lolium perenne (LOLPE)) | Pre-emergence herbicidal activity, SETFA (damage score 0-5) (Setaria fabenr (SETFA)) | Post-emergence herbicidal activity, ECHCG (damage score 0-5) [4] | Post-emergence herbicidal activity, ALOMY (damage score 0-5) [5] | Post-emergence herbicidal activity, SETFA (damage score 0-5) (Setaria fabenri (SETFA)) | Post-emergence herbicidal activity, TRAZW (damage score 0-5) [6]
CCN(CC)CCCN(C(=O)C(C)C)c1ccc(-c2cncc(F)c2)nc1C(F)(F)F [Compound C69] | 0 | 1 | 0 | 3 | 0 | 5 | 3 | 0 | 4 | 0
CCC(=O)N(CC(=O)N(C)C)c1ccc(-c2cncc(F)c2)nc1C(F)(F)F [Compound C71] | 0 | 1 | 1 | 4 | 1 | 5 | 4 | 0 | 5 | 0
CCC(=O)N(COCC(F)(F)F)c1ccc(-c2cncc(F)c2)nc1C(F)(F)F [Compound C72] | 0 | 0 | 0 | 1 | 0 | 4 | 2 | 0 | 3 | 0
CCC(=O)N(CC=C(C)C)c1ccc(-c2cncc(F)c2)nc1C(F)(F)F [Compound C73] | 0 | 2 | 0 | 4 | 0 | 5 | 4 | 0 | 5 | 0
CCN(CC)CCCN(C(=O)c1ccccc1)c1ccc(-c2cncc(F)c2)nc1C(F)(F)F [Compound C74] | 1 | 0 | 0 | 1 | 1 | 3 | 2 | 0 | 3 | 0
